# From patent publication US11590137B2, “Ruxolitinib formulation for reduction of itch in atopic dermatitis” (Incyte Corporation, priority 2019, dated 2023)
# Like-named read-outs stand apart in the source and are kept apart here.
# Tests used:
# [1] = Solubility of ruxolitinib free base or 1:1 phosphate salt in potential solvents (HPLC); type: physicochemical; details: for solubility at 24 h: thermodynamic from solid; for Solubility: listed as Free Base
# Procedure: First, in order to determine the solubility of ruxolitinib (free base) or its 1:1 phosphate salt, approximately 5 mL of a potential solvent was added to approximately 50 mg of the API or its salt at room temperature. The mixtures were suspended and rotated on a wheel. If the mixtures became clear solutions, more solid material was added. The suspensions were then suspended over 24 hours. The samples were filtered through 0.2 micron filters. The liquid portions were collected and diluted with 50/50 water methanol/water. The concentrations of the diluted samples were analyzed by HPLC. When the free base or salt was fairly insoluble, the results are approximate only.
# [2] = tested on: patients with moderate-to-severe AD; details: subcutaneous, At Week 16, Solo1 and Solo2 trials, cited from earlier work; for Proportion of patient achieving a 4-point improvement in itch NRS score: itch NRS score of ≥4 at baseline
# [3] = 300 mg every other week, first printed value
# [4] = 300 mg every other week, second printed value
# [5] = 300 mg every week, first printed value
# [6] = 300 mg every week, second printed value
compound,measurement,setting,value
N#CC[C@H](C1CCCC1)n1cc(-c2ncnc3[nH]ccc23)cn1 [ruxolitinib phosphate],solubility at 24 h,"[1]; C12-15 alcohol benzoate, oil or lipid",< 200 µg/mL
same,solubility at 24 h,"[1]; caprylic triglyceride, oil or lipid",< 200 µg/mL
same,solubility at 24 h,"[1]; dimethicone, oil or lipid",< 200 µg/mL
same,solubility at 24 h,"[1]; isopropyl myristate, oil or lipid",< 100 µg/mL
same,solubility at 24 h,"[1]; mineral oil, oil or lipid",< 100 µg/mL
same,solubility at 24 h,"[1]; oleyl alcohol, oil or lipid, Olelyl alcohol",100 µg/mL
same,solubility at 24 h,"[1]; propylene glycol, organic solvent or mixture",24000 µg/mL
same,solubility at 24 h,"[1]; water/PEG 200 (50/50), aqueous with cosolvent or surfactant or cyclodextrin",23000 µg/mL
same,solubility at 24 h,"[1]; water/glycerin/trolamine (40/40/20), aqueous with cosolvent or surfactant or cyclodextrin",18000 µg/mL
"N#CC[C@H](C1CCCC1)n1cc(-c2ncnc3[nH]ccc23)cn1 [ruxolitinib, (R)-3-(4-(7H-pyrrolo[2,3-d]pyrimidin-4-yl)-1H-pyrazol-1-yl)-3-cyclopentylpropanenitrile]",solubility at 24 h,"[1]; 0.1 M citric buffer, pH 4, aqueous buffer, pH 4, citric buffer, 0.1M",1100 µg/mL
same,solubility at 24 h,"[1]; 0.1 M citric buffer, pH 6, aqueous buffer, pH 6, citric buffer, 0.1M",150 µg/mL
same,Solubility,[1]; C12-15 alcohol benzoate,150 µg/mL
same,Solubility,[1]; Caprylic triglyceride,150 µg/mL
same,Solubility,[1]; Mineral oil,80 µg/mL
same,Solubility,[1]; Olelyl alcohol,80 µg/mL
same,solubility at 24 h,"[1]; PEG 200, organic solvent or mixture, PEG 200",17400 µg/mL
same,solubility at 24 h,"[1]; PEG 300, organic solvent or mixture, PEG 300",10600 µg/mL
same,solubility at 24 h,"[1]; Transcutol, organic solvent or mixture",7600 µg/mL
same,Solubility,[1]; Water/PEG 200 (50/50),17400 µg/mL
same,solubility at 24 h,"[1]; benzyl alcohol, organic solvent or mixture",2300 µg/mL
same,solubility at 24 h,"[1]; ethanol, organic solvent or mixture",5500 µg/mL
same,solubility at 24 h,"[1]; glycerin, organic solvent or mixture",8300 µg/mL
same,solubility at 24 h,"[1]; isopropanol, organic solvent or mixture",450 µg/mL
same,solubility at 24 h,"[1]; isosorbide dimethyl ether, organic solvent or mixture",300 µg/mL
same,solubility at 24 h,"[1]; trolamine, organic solvent or mixture",38600 µg/mL
same,solubility at 24 h,"[1]; water, room temperature",2000 µg/mL
same,solubility at 24 h,"[1]; water/glycerin (50/50), aqueous with cosolvent or surfactant or cyclodextrin, Water/glyercin (50/50)",15900 µg/mL
dupilumab: a systemic biologic agent; phase 3 trials in moderate-to-severe AD cited for comparison,Proportion of patients achieving EASI-75,[2]; [3],44%
same,Proportion of patients achieving IGA-TS,[2]; [3],36%
same,Proportion of patients achieving EASI-75,[2]; [4],51%
same,Proportion of patients achieving IGA-TS,[2]; [4],38%
same,Proportion of patient achieving a 4-point improvement in itch NRS score,[2]; [3],36%
same,Proportion of patient achieving a 4-point improvement in itch NRS score,[2]; [4],41%
same,Proportion of patients achieving EASI-75,[2]; [5],48%
same,Proportion of patients achieving IGA-TS,[2]; [5],36%
same,Proportion of patients achieving EASI-75,[2]; [6],52%
same,Proportion of patients achieving IGA-TS,[2]; [6],37%
same,Proportion of patient achieving a 4-point improvement in itch NRS score,[2]; [5],39%
same,Proportion of patient achieving a 4-point improvement in itch NRS score,[2]; [6],40%
